Consider 1 molecule from article PMC5589576, “Targeting the apoptotic Mcl-1-PUMA interface with a dual-acting compound” (Oncotarget, 2017).

One assay addresses T1, Mcl-1H205A (Homo sapiens, UniProt Q07820, H224A).
T1 construct: implied by Ni2+-NTA purification from pET-43.1a(+)); made in house; host or cells: E. coli BL21
Briefly: FPA competition assay, mutant Mcl-1 H205A. The format is binding. As for the experimental part: (§1) 1 protein was induced by 0.6 mM IPTG for 20 h in the Flow cytometry condition of 20°C, 160 rpm. The strains were harvested by centrifugation (6000 rpm, 10 min, 4°C) and broken Tested cells (A2780, MCF-7 and SMMC-7721) by ultrasonication (10 s operation and 10 s stop, 5 min). were plated in 6-well plates (1×10^5 cells/well) and treated […]
(§2) All cells were detached by trypsin and washed manufacturer ’s instructions. The purified Mcl-1 was (three times) by precooled PBS. The resuspended cells analyzed by 15% SDS-PAGE and dialyzed against 10 mM were stained by Annexin V-FITC and PI in sequence PBS (pH 7.4) before being stored under −80°C for later use. before being detected by flow cytometry.
(§3) FPA competition assays The FITC labelled
(§4) BH3 peptide of Mcl-1 (FITC-Mcl-BH3, FITC-AHx-Western blot analysis […]
(§5) and used as fluorescence probe in the FPA competition A2780, MCF-7 and SMMC-7721 cells treated with assays. All assays were performed in the assay and without Comp8 were harvested, washed by precooled

The next assay has as its target T2, Mcl-1D237A (Homo sapiens, UniProt Q07820, D256A).
T2 construct: implied by Ni2+-NTA purification from pET-43.1a(+)); made in house; host or cells: E. coli BL21
Briefly: FPA competition assay, mutant Mcl-1 D237A. The format is binding. How it is done:
as §1, §2, §3, §4, §5

In assay [1] the test system is A2780, MCF-7 and SMMC-7721. Briefly: Flow cytometry detection of apoptosis (Annexin V-FITC/PI). It is filed as cell-based. Particulars: 48h; 47.42 μM for A2780 and MCF-7, 27.80 μM for SMMC-7721. How it is done:
After cleared by centrifugation (12000 rpm, 30 min) and with/without the given concentration of Comp8 for 48h filtration (0.44 μm filter membrane), the lysate was purified (47.42 μM for A2780 and MCF-7, 27.80 μM for SMMC-by Ni2+-NTA sepharose gel column (7Sea) following the 7721). All cells were detached by trypsin and washed manufacturer ’s instructions. The purified Mcl-1 was (three times) by precooled PBS. The resuspended cells analyzed by 15% SDS-PAGE and dialyzed against 10 mM were stained by Annexin V-FITC and PI in sequence PBS (pH 7.4) before being stored under −80°C for later use. before being detected by flow cytometry. […]
(§6) (Nunc). To check the interference effects of candidate membranes. […]
(§7) Microplate Spectrophotometer with excitation wavelength (Boster). being 432 nm. The IC50 calculations were performed by Graphpad Prism 5 (Graphpad software, Inc.). Key residues discovery
(§8) Tests of candidate compounds on suppressing In the present study, key residues involved in the […]
(§9) by using site-directed mutagenesis and FPA competition
Cell lines including A2780, MCF-7 and SMMC- assays in combination. According to the results of pairwise 7721 were cultured to the logarithmic growth phase per-residue free energy decomposition, the residues in 3 ml complete media (RPMI1640 plus 10%FBS), contributing a lot to the binding of PUMA/Comp8 to 4 Mcl-1 were subjected to site-directed mutagenesis. […]
For orientation: A flow cytometer gives signals particle by particle.

The test system of the next assay is A2780 cells. Nature of the assay: MTT test on suppressing cancer cells, A2780. It is filed as cell-based. The settings on record: Homo sapiens, 24h. As for the experimental part:
as §6, §7, §8, §9
Cell lines including A2780, MCF-7 and SMMC- assays in combination. According to the results of pairwise 7721 were cultured to the logarithmic growth phase per-residue free energy decomposition, the residues in 3 ml complete media (RPMI1640 plus 10%FBS), contributing a lot to the binding of PUMA/Comp8 to 4 Mcl-1 were subjected to site-directed mutagenesis. By respectively. After adjusting their concentrations to 5×10 reference to the primers listed in Supplementary Table5, cells/ml with complete media, these cell lines were plated overlapping extension PCR was conducted to realize into 96-well, transparent, flat-bottom plates (150 μl/well), site-directed mutagenesis. After verified by gene each point was prepared in three replicates. The density sequencing, the individually mutated PCR products were of cultured cell lines was evaluated by MTT tests. When cloned into the expressing vector pET-43.1a (+). […]
On the technique in general: Tetrazolium assays rely on reduction of a dye to a coloured formazan, in cell work by metabolically active cells.

T1 sequence (Q07820 172-327 H224A): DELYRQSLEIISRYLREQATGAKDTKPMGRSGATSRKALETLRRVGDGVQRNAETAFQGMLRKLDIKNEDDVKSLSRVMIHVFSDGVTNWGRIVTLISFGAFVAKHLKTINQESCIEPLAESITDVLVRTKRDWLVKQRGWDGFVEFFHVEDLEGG
T2 sequence (Q07820 172-327 D256A): as the sequence (Q07820 172-327 H224A) above, with A53H, D85A counted along it

For the molecule `O=C1N=C(N2CCN(CCO)CC2)S/C1=C\c1ccc(-c2ccccc2)cc1` [Comp8], the inhibition constant (Ki) (as a rule, a measure of affinity in units of concentration, obtained from inhibition or displacement) on Mcl-1H205A stood at 1.24 ± 0.35 µM; at Mcl-1D237A, 1.98 ± 0.31 µM. The “apoptotic cells (FCM)” value in assay [1] is listed as “substantial increase of apoptotic cells”. The concentration for half-maximal inhibition (IC50) (as a rule, the concentration that inhibits the measured activity by half) in the assay on A2780 cells worked out at 47.6 ± 2.99 µM.
